Measured values taken from PubChem BioAssay AID2060485 (Molecular Pharmacology Branch, DTP, NCI, 2025).

Tested on: A375 multi-cell spheroids with HUVEC/MSC, viability
Assay: Anticancer human tumor A375 cell line growth inhibition [GQUAD];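 further: spheroids exposed to compounds for seven days before readout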
Settings: for IC50: curve of first compound; for viability, T/C: stronger effect = lower value
Method in brief: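 Viability of tumor cells grown as complex spheroids with endothelial and stromal cells, exposed to drug combinations. Top concentration at or near clinical Cmax (else 10 microM), diluted in half-log increments.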

[1] = second compound 0.0316 µM, first compound 0.0316 µM
[2] = second compound 0.0316 µM, first compound 0.1 µM
[3] = second compound 0.0316 µM, first compound 0.316 µM
[4] = second compound 0.0316 µM, first compound 1 µM
[5] = second compound 0.0316 µM, first compound 3.16 µM
[6] = second compound 0.0316 µM, first compound 10 µM
[7] = second compound 0.1 µM, first compound 0.0316 µM
[8] = second compound 0.1 µM, first compound 0.1 µM
[9] = second compound 0.1 µM, first compound 0.316 µM
[10] = second compound 0.1 µM, first compound 1 µM
[11] = second compound 0.1 µM, first compound 3.16 µM
[12] = second compound 0.1 µM, first compound 10 µM
[13] = second compound 0.316 µM, first compound 0.0316 µM
[14] = second compound 0.316 µM, first compound 0.1 µM
[15] = second compound 0.316 µM, first compound 0.316 µM
[16] = second compound 0.316 µM, first compound 1 µM
[17] = second compound 0.316 µM, first compound 3.16 µM
[18] = second compound 0.316 µM, first compound 10 µM
[19] = second compound 1 µM, first compound 0.0316 µM
[20] = second compound 1 µM, first compound 0.1 µM
[21] = second compound 1 µM, first compound 0.316 µM
[22] = second compound 1 µM, first compound 1 µM
[23] = second compound 1 µM, first compound 3.16 µM
[24] = second compound 1 µM, first compound 10 µM
[25] = second compound 3.16 µM, first compound 0.0316 µM
[26] = second compound 3.16 µM, first compound 0.1 µM
[27] = second compound 3.16 µM, first compound 0.316 µM
[28] = second compound 3.16 µM, first compound 1 µM
[29] = second compound 3.16 µM, first compound 3.16 µM
[30] = second compound 3.16 µM, first compound 10 µM
[31] = second compound 10 µM, first compound 0.0316 µM
[32] = second compound 10 µM, first compound 0.1 µM
[33] = second compound 10 µM, first compound 0.316 µM
[34] = second compound 10 µM, first compound 1 µM
[35] = second compound 10 µM, first compound 3.16 µM
[36] = second compound 10 µM, first compound 10 µM

SMILES: C=CCn1c(=O)c2cnc(Nc3ccc(N4CCN(C)CC4)cc3)nc2n1-c1cccc(C(C)(C)O)n1 + CN(C)c1ccc(Nc2c3ccc(NC(=O)CCN4CCCC4)cc3nc3cc(NC(=O)CCN4CCCC4)ccc23)cc1
- IC50 (second compound 0.0316 µM): 1160 nM
- IC50 (second compound 0.1 µM): 1230 nM
- IC50 (second compound 0.316 µM): 1310 nM
- IC50 (second compound 1 µM): 1380 nM
- IC50 (second compound 3.16 µM): 1440 nM
- IC50 (second compound 10 µM): 1400 nM
- viability, T/C [1]: 99.7%
- viability, T/C [2]: 105%
- viability, T/C [3]: 96.4%
- viability, T/C [4]: 55.9%
- viability, T/C [5]: 12.3%
- viability, T/C [6]: 7.71%
- viability, T/C [7]: 98.4%
- viability, T/C [8]: 100%
- viability, T/C [9]: 104%
- viability, T/C [10]: 58%
- viability, T/C [11]: 15.1%
- viability, T/C [12]: 7.18%
- viability, T/C [13]: 106%
- viability, T/C [14]: 98.7%
- viability, T/C [15]: 99.9%
- viability, T/C [16]: 60.7%
- viability, T/C [17]: 14.2%
- viability, T/C [18]: 6.94%
- viability, T/C [19]: 102%
- viability, T/C [20]: 102%
- viability, T/C [21]: 107%
- viability, T/C [22]: 63.8%
- viability, T/C [23]: 15.3%
- viability, T/C [24]: 6.9%
- viability, T/C [25]: 108%
- viability, T/C [26]: 96.1%
- viability, T/C [27]: 106%
- viability, T/C [28]: 66%
- viability, T/C [29]: 15.6%
- viability, T/C [30]: 8.34%
- viability, T/C [31]: 103%
- viability, T/C [32]: 93.3%
- viability, T/C [33]: 105%
- viability, T/C [34]: 63.5%
- viability, T/C [35]: 17.4%
- viability, T/C [36]: 8.32%

SMILES: CC(C)(O)C1CCC(Nc2ccc3ncc(-c4cccc(C(F)(F)F)c4)n3n2)CC1 (stereo not drawn) + CN(C)c1ccc(Nc2c3ccc(NC(=O)CCN4CCCC4)cc3nc3cc(NC(=O)CCN4CCCC4)ccc23)cc1
- IC50 (second compound 0.0316 µM): > 10000 nM
- IC50 (second compound 0.1 µM): > 10000 nM
- IC50 (second compound 0.316 µM): > 10000 nM
- IC50 (second compound 1 µM): > 10000 nM
- IC50 (second compound 3.16 µM): 10000 nM
- IC50 (second compound 10 µM): 2180 nM
- viability, T/C [1]: 95.9%
- viability, T/C [2]: 93%
- viability, T/C [3]: 95.7%
- viability, T/C [4]: 104%
- viability, T/C [5]: 84%
- viability, T/C [6]: 92.9%
- viability, T/C [7]: 93.1%
- viability, T/C [8]: 92.6%
- viability, T/C [9]: 96.6%
- viability, T/C [10]: 90.6%
- viability, T/C [11]: 79.2%
- viability, T/C [12]: 88.5%
- viability, T/C [13]: 99%
- viability, T/C [14]: 91.2%
- viability, T/C [15]: 88.9%
- viability, T/C [16]: 104%
- viability, T/C [17]: 80.6%
- viability, T/C [18]: 92.8%
- viability, T/C [19]: 96.7%
- viability, T/C [20]: 92.4%
- viability, T/C [21]: 97.7%
- viability, T/C [22]: 95.1%
- viability, T/C [23]: 75.9%
- viability, T/C [24]: 85%
- viability, T/C [25]: 93.7%
- viability, T/C [26]: 99.2%
- viability, T/C [27]: 97.7%
- viability, T/C [28]: 98.1%
- viability, T/C [29]: 49.6%
- viability, T/C [30]: 68.7%
- viability, T/C [31]: 94.6%
- viability, T/C [32]: 91.2%
- viability, T/C [33]: 96.7%
- viability, T/C [34]: 84.9%
- viability, T/C [35]: 25.9%
- viability, T/C [36]: 40.9%

SMILES: Cc1[nH]c2ccccc2c1CCNCc1ccc(/C=C/C(=O)NO)cc1 + CN(C)c1ccc(Nc2c3ccc(NC(=O)CCN4CCCC4)cc3nc3cc(NC(=O)CCN4CCCC4)ccc23)cc1
- IC50 (second compound 0.0316 µM): 156 nM
- IC50 (second compound 0.1 µM): 133 nM
- IC50 (second compound 0.316 µM): 127 nM
- IC50 (second compound 1 µM): 119 nM
- IC50 (second compound 3.16 µM): 106 nM
- IC50 (second compound 10 µM): 97.7 nM
- viability, T/C (second compound 0.0316 µM, first compound 0.000999 µM): 111%
- viability, T/C (second compound 0.0316 µM, first compound 0.00316 µM): 101%
- viability, T/C (second compound 0.0316 µM, first compound 0.00999 µM): 110%
- viability, T/C [1]: 122%
- viability, T/C (second compound 0.0316 µM, first compound 0.0999 µM): 76%
- viability, T/C [3]: 9.06%
- viability, T/C (second compound 0.1 µM, first compound 0.000999 µM): 99.1%
- viability, T/C (second compound 0.1 µM, first compound 0.00316 µM): 110%
- viability, T/C (second compound 0.1 µM, first compound 0.00999 µM): 124%
- viability, T/C [7]: 127%
- viability, T/C (second compound 0.1 µM, first compound 0.0999 µM): 64%
- viability, T/C [9]: 7.22%
- viability, T/C (second compound 0.316 µM, first compound 0.000999 µM): 107%
- viability, T/C (second compound 0.316 µM, first compound 0.00316 µM): 110%
- viability, T/C (second compound 0.316 µM, first compound 0.00999 µM): 111%
- viability, T/C [13]: 114%
- viability, T/C (second compound 0.316 µM, first compound 0.0999 µM): 61.5%
- viability, T/C [15]: 7.25%
- viability, T/C (second compound 1 µM, first compound 0.000999 µM): 104%
- viability, T/C (second compound 1 µM, first compound 0.00316 µM): 113%
- viability, T/C (second compound 1 µM, first compound 0.00999 µM): 116%
- viability, T/C [19]: 110%
- viability, T/C (second compound 1 µM, first compound 0.0999 µM): 58%
- viability, T/C [21]: 5.35%
- viability, T/C (second compound 3.16 µM, first compound 0.000999 µM): 98.4%
- viability, T/C (second compound 3.16 µM, first compound 0.00316 µM): 106%
- viability, T/C (second compound 3.16 µM, first compound 0.00999 µM): 113%
- viability, T/C [25]: 114%
- viability, T/C (second compound 3.16 µM, first compound 0.0999 µM): 52.3%
- viability, T/C [27]: 5.53%
- viability, T/C (second compound 10 µM, first compound 0.000999 µM): 111%
- viability, T/C (second compound 10 µM, first compound 0.00316 µM): 98.7%
- viability, T/C (second compound 10 µM, first compound 0.00999 µM): 112%
- viability, T/C [31]: 106%
- viability, T/C (second compound 10 µM, first compound 0.0999 µM): 48.9%
- viability, T/C [33]: 3.5%

SMILES: O=C(NO)c1cnc(N2CCN(S(=O)(=O)c3ccc4ccccc4c3)CC2)nc1 + CN(C)c1ccc(Nc2c3ccc(NC(=O)CCN4CCCC4)cc3nc3cc(NC(=O)CCN4CCCC4)ccc23)cc1
- IC50 (second compound 0.0316 µM): 188 nM
- IC50 (second compound 0.1 µM): 191 nM
- IC50 (second compound 0.316 µM): 186 nM
- IC50 (second compound 1 µM): 190 nM
- IC50 (second compound 3.16 µM): 189 nM
- IC50 (second compound 10 µM): 189 nM
- viability, T/C [1]: 121%
- viability, T/C [2]: 105%
- viability, T/C [3]: 4.84%
- viability, T/C [4]: 0.29%
- viability, T/C [5]: 0.27%
- viability, T/C [6]: 0.29%
- viability, T/C [7]: 107%
- viability, T/C [8]: 108%
- viability, T/C [9]: 5.35%
- viability, T/C [10]: 0.26%
- viability, T/C [11]: 0.22%
- viability, T/C [12]: 0.25%
- viability, T/C [13]: 108%
- viability, T/C [14]: 103%
- viability, T/C [15]: 4.36%
- viability, T/C [16]: 0.25%
- viability, T/C [17]: 0.21%
- viability, T/C [18]: 0.23%
- viability, T/C [19]: 104%
- viability, T/C [20]: 110%
- viability, T/C [21]: 5.11%
- viability, T/C [22]: 0.26%
- viability, T/C [23]: 0.2%
- viability, T/C [24]: 0.22%
- viability, T/C [25]: 103%
- viability, T/C [26]: 110%
- viability, T/C [27]: 4.25%
- viability, T/C [28]: 0.25%
- viability, T/C [29]: 0.22%
- viability, T/C [30]: 0.24%
- viability, T/C [31]: 102%
- viability, T/C [32]: 107%
- viability, T/C [33]: 6.02%
- viability, T/C [34]: 0.26%
- viability, T/C [35]: 0.93%
- viability, T/C [36]: 0.25%
